The results in this text go back to ChEMBL document CHEMBL5104122, “Synthesis and application of phosphorylated saccharides in researching carbohydrate-based drugs” (Bioorg Med Chem, 2022).

This assay concerns the target Galectin-7 (Homo sapiens, UniProt P47929). As to the kind of experiment: Binding affinity to human Gal-7 assessed as dissociation constant by fluorescence polarization assay. A general note: Fluorescence polarisation rises when a labelled molecule tumbles more slowly, as on binding a larger partner.

Galectin-7, sequence (P47929 whole entry): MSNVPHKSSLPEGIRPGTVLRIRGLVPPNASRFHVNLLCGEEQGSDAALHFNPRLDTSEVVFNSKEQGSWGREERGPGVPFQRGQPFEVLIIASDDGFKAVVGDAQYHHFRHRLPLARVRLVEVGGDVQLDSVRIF

A word on the Kd: it is a measure of binding affinity in units of concentration. Turning to `CS[C@@H]1O[C@H](CO)[C@H](O)[C@H](NC(=O)c2ccc(C)cc2)[C@H]1OP(=O)(O)OCc1ccccc1`, the Kd amounted to 450 µM.

Regarding `COP(=O)(O)O[C@@H]1[C@@H](NC(=O)c2ccc(C)cc2)[C@@H](O)[C@@H](CO)O[C@H]1SC`, the Kd was 240 µM.
